# Measured values reported in ChEMBL document CHEMBL1128054, “The synthesis of pyrazolo[4,3-c]- and imidazo[4,5-c]-Aryl[e]fused pyridines as structural analogues of 4-aminonicotinoates” (Bioorg Med Chem Lett, 1995).
# Biological target: GABA-A receptor; anion channel
# Assay: Inhibition of [35S][…] (TBPS) binding to Gamma-aminobutyric acid receptor
# Type: protein-complex assay
row,IC50 [nM],Compound
1,2000,CCCOC(=O)c1c(C)nc2c(c1N)c1ccccc1n2C
2,6300,Cc1nc2sc3c(c2c2ncn(CCC4CC4)c12)CCC1(C3)OCCO1
3,780,C#CCOC(=O)c1c(C)nc2sc3c(c2c1N)CCC1(C3)OCCO1
4,1400,Cc1nc2sc3c(c2c(N)c1C(=O)OCc1ccccc1)CCC1(C3)OCCO1
5,240,Cc1nc2sc3c(c2c(N)c1C(=O)OCCC1CC1)CCC1(C3)OCCO1
6,8900,Cc1nc2sc3c(c2c2ncn(CC4CC4)c12)CCC1(C3)OCCO1
7,> 100000,Cc1[nH]c2sc3c(c2c2ncnc1-2)CCC1(C3)OCCO1
8,2000,CCOC(=O)c1c(C)nc2c(c1N)c1ccccc1n2C
9,2000,COC(=O)c1c(C)nc2c(c1N)c1ccccc1n2C
10,2700,Cc1nc2sc3c(c2c2ncn(CCc4ccc(Cl)cc4)c12)CCC1(C3)OCCO1
11,> 100000,Cc1nc2sc3c(c2c2nn(Cc4ccccc4)c(O)c12)CCC1(C3)OCCO1
12,870,Cc1nc2sc3c(c2c(N)c1C(=O)OCC1CC1)CCC1(C3)OCCO1
13,310,Cc1nc2sc3c(c2c(N)c1C(=O)OCc1ccc(Cl)cc1)CCC1(C3)OCCO1
14,16400,CCOC(=O)c1c(C)nc2sc3c(c2c1N)CCC1(C3)OCCO1
15,320,C#CCCOC(=O)c1c(C)nc2sc3c(c2c1N)CCC1(C3)OCCO1
